{"source": "patent US20230322767A1", "about": "“ARYL SUBSTITUTED PYRROLO-PYRIDINONES AND THERAPEUTIC USES THEREOF” (Bayer Aktiengesellschaft, priority 2020, published 2023)", "key": {"CSNK1A1": {"molecular_target": "CSNK1A1 (Homo sapiens (Human), UniProt P48729)", "sequence (P48729 whole entry)": "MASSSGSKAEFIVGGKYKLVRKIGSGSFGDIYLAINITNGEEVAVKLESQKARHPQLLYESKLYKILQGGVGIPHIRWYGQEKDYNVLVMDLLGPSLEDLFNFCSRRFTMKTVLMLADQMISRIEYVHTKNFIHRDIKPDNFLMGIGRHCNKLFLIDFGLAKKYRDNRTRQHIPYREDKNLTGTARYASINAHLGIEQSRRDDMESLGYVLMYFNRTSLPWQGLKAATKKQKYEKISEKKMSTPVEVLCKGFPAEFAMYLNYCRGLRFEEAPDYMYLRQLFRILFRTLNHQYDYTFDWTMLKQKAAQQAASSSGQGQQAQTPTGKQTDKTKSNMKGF", "experiment": "CSNK1A1 Assay 2 (ADP-Glo, 1 μM ATP)", "format": "biochemical", "details": "median, read-out: CSNK1A1 Assay 2 IC50 [mol/l] (median)", "experimental": "CSNK1A1-inhibitory activity of compounds of the present invention in presence of 1 μM adenosine-tri-phosphate (ATP) was quantified employing the CSNK1A1 assay as described in the following paragraphs. In essence, the enzyme activity is measured by quantification of the adenosine-di-phosphate (ADP), which is generated as a co-product of the enzyme reaction, via the “ADP-Glo™ Kinase Assay” kit from the company Promega. This detection system works as follows: In a first step the ATP not consumed in the kinase reaction is quantitatively converted to cAMP employing an adenylate cyclase (“ADP-Glo-reagent”), then the adenylate cyclase is stopped and the ADP generated in the kinase reaction converted to ATP which generates in a luciferase-based reaction a glow-luminescence signal (“Kinase Detection Reagent”).\nAs substrate for the kinase reaction the biotinylated peptide biotin-Ahx-KRRRAL-pS-VASLPGL (C-terminus in amide form) was used which can be purchased e.g. from the company Biosyntan (Berlin-Buch, Germany).\nFor the assay 50 nl of a 100 fold concentrated solution of the test compound in DMSO was pipetted into a white 1536-well microtiter plate (Greiner Bio-One, Frickenhausen, Germany), 2 μL of a solution of CSNK1A1 in aqueous assay buffer [50 mM HEPES pH 7.5, 10% (v/v) glycerol, 10 mM MgCl2, 50 mM NaCl, 1 mM dithiothreitol, 0.01% (w/v) bovine serum albumin, 0.01% (v/v) Triton X-100] were added and the mixture was incubated for 15 min at 22° C. to allow pre-binding of the test compounds to the enzyme before the start of the kinase reaction. […] The concentration of CSNK1A1 was adjusted depending of the activity of the enzyme lot and was chosen appropriate to have the assay in the linear range, a typical concentrations are about 0.0375 ng/μL. The reaction was stopped by the addition of 2.5 μL of “ADP-Glo-reagent” (1:1.5 fold diluted with water) and the resulting mixture was incubated at 22° C. for 1 h to convert the ATP not consumed in the kinase reaction completely […]. Subsequently 2.5 μL of the “kinase detection reagent” (1.2 fold more concentrated than recommended by the producer) were added, the resulting mixture was incubated at 22° C. for 1 h and then the luminescence measured with a suitable measurement instrument (e.g. Viewlux™ from Perkin-Elmer). The amount of emitted light was taken as a measure for the amount of ADP generated and thereby for the activity of the CSNK1A1."}, "CSNK1D": {"molecular_target": "CSNK1D (Homo sapiens (Human), UniProt P48730)", "sequence (P48730 whole entry)": "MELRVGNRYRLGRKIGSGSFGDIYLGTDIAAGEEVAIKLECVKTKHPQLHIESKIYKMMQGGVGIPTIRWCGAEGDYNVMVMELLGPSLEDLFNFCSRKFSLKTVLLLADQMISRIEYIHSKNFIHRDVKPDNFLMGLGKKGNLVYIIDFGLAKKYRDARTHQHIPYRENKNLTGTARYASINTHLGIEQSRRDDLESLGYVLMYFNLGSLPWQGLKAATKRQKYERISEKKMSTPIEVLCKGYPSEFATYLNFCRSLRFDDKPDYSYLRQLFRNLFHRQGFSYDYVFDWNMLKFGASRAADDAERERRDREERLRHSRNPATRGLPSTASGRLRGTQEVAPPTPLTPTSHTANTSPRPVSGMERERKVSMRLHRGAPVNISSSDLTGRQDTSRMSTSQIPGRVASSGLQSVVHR", "experiment": "CSNK1D Assay (ADP-Glo, 1 μM ATP)", "format": "biochemical", "details": "median, read-out: CSNK1D IC50 [mol/l] (median)", "experimental": "CSNK1D-inhibitory activity of compounds of the present invention in presence of 1 μM adenosine-tri-phosphate (ATP) was quantified employing the CSNK1 D assay as described in the following paragraphs. In essence, the enzyme activity is measured by quantification of the adenosine-di-phosphate (ADP), which is generated as a co-product of the enzyme reaction, via the “ADP-Glo™ Kinase Assay” kit from the company Promega. This detection system works as follows: In a first step the ATP not consumed in the kinase reaction is quantitatively converted to cAMP employing an adenylate cyclase (“ADP-Glo-reagent”), then the adenylate cyclase is stopped and the ADP generated in the kinase reaction converted to ATP which generates in a luciferase-based reaction a glow-luminescence signal (“Kinase Detection Reagent”).\nAs substrate for the kinase reaction the biotinylated peptide Btn-Ahx-[…] (C-terminus in amide form) was used which can be purchased e.g. from the company Biosyntan (Berlin-Buch, Germany).\nFor the assay 50 nl of a 100 fold concentrated solution of the test compound in DMSO was pipetted into a white 1536-well microtiter plate (Greiner Bio-One, Frickenhausen, Germany), 2 μL of a solution of CSNK1D in aqueous assay buffer [50 mM HEPES pH 7.5, 10% (v/v) glycerol, 10 mM MgCl2, 50 mM NaCl, 1 mM dithiothreitol, 0.01% (w/v) bovine serum albumin, 0.01% (v/v) Triton X-100] were added and the mixture was incubated for 15 min at 22° C. to allow pre-binding of the test compounds to the enzyme before the start of the kinase reaction. […] The concentration of CSNK1D was adjusted depending of the activity of the enzyme lot and was chosen appropriate to have the assay in the linear range, a typical concentration is about 0.5 ng/μL. The reaction was stopped by the addition of 2.5 μL of “ADP-Glo-reagent” (1:1.5 fold diluted with water) and the resulting mixture was incubated at 22° C. for 1 h to convert the ATP not consumed in the kinase reaction completely […]. Subsequently 2.5 μL of the “kinase detection reagent” (1.2 fold more concentrated than recommended by the producer) were added, the resulting mixture was incubated at 22° C. for 1 h and then the luminescence measured with a suitable measurement instrument (e.g. Viewlux™ from Perkin-Elmer). The amount of emitted light was taken as a measure for the amount of ADP generated and thereby for the activity of the CSNK1D."}}, "data": [{"compound": "CC(C(=O)Nc1cc(-c2[nH]c3c(c2-c2ccccc2)C(=O)NCC3(C)C)ccn1)c1ccc(F)cc1", "note": "(single isomer, unassigned) [Example 48, N-[4-(7,7-dimethyl-4-oxo-3-phenyl-4,5,6,7-tetrahydro-1H-pyrrolo[3,2-c]pyridin-2-yl)pyridin-2-yl]-2-(4-fluorophenyl)propanamide]", "values": [{"measurement": "IC50", "setting": "CSNK1A1", "value": 1.8, "unit": "nM"}, {"measurement": "IC50", "setting": "CSNK1D", "value": 2.9, "unit": "nM"}]}, {"compound": "CC(C(=O)Nc1cc(-c2[nH]c3c(CC(F)(F)F)cn(C)c(=O)c3c2-c2ccccc2)ccn1)c1ccc(F)cc1", "note": "(racemic) [Example 14, 2-(4-fluorophenyl)-N-{4-[5-methyl-4-oxo-3-phenyl-7-(2,2,2-trifluoroethyl)-4,5-dihydro-1H-pyrrolo[3,2-c]pyridin-2-yl]pyridin-2-yl}propanamide]", "values": [{"measurement": "IC50", "setting": "CSNK1A1", "value": 4.7, "unit": "nM"}, {"measurement": "IC50", "setting": "CSNK1D", "value": 2.7, "unit": "nM"}]}, {"compound": "CN1CCc2[nH]c(-c3ccnc(NC(=O)C(CC(F)F)c4ccc(F)cc4)c3)c(-c3ccccc3)c2C1=O", "note": "(single isomer, unassigned) [Example 4, 4,4-difluoro-2-(4-fluorophenyl)-N-[4-(5-methyl-4-oxo-3-phenyl-4,5,6,7-tetrahydro-1H-pyrrolo[3,2-c]pyridin-2-yl)pyridin-2-yl]butanamide]", "values": [{"measurement": "IC50", "setting": "CSNK1A1", "value": 1.1, "unit": "nM"}, {"measurement": "IC50", "setting": "CSNK1D", "value": 2.3, "unit": "nM"}]}, {"compound": "CN1CCc2[nH]c(-c3ccnc(NC(=O)C(CC(F)F)c4ccc(F)cc4)c3)c(-c3ccccc3)c2C1=O", "note": "(single isomer, unassigned) [Example 3, 4,4-difluoro-2-(4-fluorophenyl)-N-[4-(5-methyl-4-oxo-3-phenyl-4,5,6,7-tetrahydro-1H-pyrrolo[3,2-c]pyridin-2-yl)pyridin-2-yl]butanamide]", "values": [{"measurement": "IC50", "setting": "CSNK1A1", "value": 4.7, "unit": "nM"}, {"measurement": "IC50", "setting": "CSNK1D", "value": 5.9, "unit": "nM"}]}, {"compound": "Cn1cc(CC(F)(F)F)c2[nH]c(-c3ccnc(NC(=O)C(CC(F)F)c4ccc(F)cc4)c3)c(-c3ccccc3)c2c1=O", "note": "(single isomer, unassigned; (+)) [Example 20, (+)-4,4-difluoro-2-(4-fluorophenyl)-N-{4-[5-methyl-4-oxo-3-phenyl-7-(2,2,2-trifluoroethyl)-4,5-dihydro-1H-pyrrolo[3,2-c]pyridin-2-yl]pyridin-2-yl}butanamide]", "values": [{"measurement": "IC50", "setting": "CSNK1A1", "value": 14, "unit": "nM"}, {"measurement": "IC50", "setting": "CSNK1D", "value": 12, "unit": "nM"}]}, {"compound": "CC(C(=O)Nc1cc(-c2[nH]c3c(c2-c2ccc(F)cc2)C(=O)N(C)CC3CC2CC2)ccn1)c1ccc(F)cc1", "note": "(centres unmarked) [Example 62, N-{4-[7-(cyclopropylmethyl)-3-(4-fluorophenyl)-5-methyl-4-oxo-4,5,6,7-tetrahydro-1H-pyrrolo[3,2-c]pyridin-2-yl]pyridin-2-yl}-2-(4-fluorophenyl)propanamide]", "values": [{"measurement": "IC50", "setting": "CSNK1A1", "value": 7.6, "unit": "nM"}, {"measurement": "IC50", "setting": "CSNK1D", "value": 4, "unit": "nM"}]}, {"compound": "Cc1cn(C)c(=O)c2c(-c3ccc(F)cc3)c(-c3ccnc(NC(=O)C(C)c4ccc(F)cc4)c3)[nH]c12", "note": "(single isomer, unassigned; (-)) [Example 31, (−)-2-(4-fluorophenyl)-N-{4-[3-(4-fluorophenyl)-5,7-dimethyl-4-oxo-4,5-dihydro-1H-pyrrolo[3,2-c]pyridin-2-yl]pyridin-2-yl}propanamide]", "values": [{"measurement": "IC50", "setting": "CSNK1A1", "value": 53, "unit": "nM"}, {"measurement": "IC50", "setting": "CSNK1D", "value": 14, "unit": "nM"}]}, {"compound": "CC(C(=O)Nc1cc(-c2[nH]c3c(c2-c2ccccc2)C(=O)N(C)C2(CCC2)C3)ccn1)c1ccc(F)cc1", "note": "(racemic) [Example 52, 2-(4-fluorophenyl)-N-[4-(5′-methyl-4′-oxo-3′-phenyl-1′,4′,5′,7′-tetrahydrospiro[cyclobutane-1,6′-pyrrolo[3,2-c]pyridin]-2′-yl)pyridin-2-yl]propanamide]", "values": [{"measurement": "IC50", "setting": "CSNK1A1", "value": 3.4, "unit": "nM"}, {"measurement": "IC50", "setting": "CSNK1D", "value": 3.8, "unit": "nM"}]}, {"compound": "Cc1cn(C)c(=O)c2c(-c3ccc(F)cc3)c(-c3ccnc(NC(=O)C(CC(F)F)c4ccc(F)cc4)c3)[nH]c12", "note": "(single isomer, unassigned; (+)) [Example 36, (+)-4,4-difluoro-2-(4-fluorophenyl)-N-{4-[3-(4-fluorophenyl)-5,7-dimethyl-4-oxo-4,5-dihydro-1H-pyrrolo[3,2-c]pyridin-2-yl]pyridin-2-yl}butanamide]", "values": [{"measurement": "IC50", "setting": "CSNK1A1", "value": 3.5, "unit": "nM"}, {"measurement": "IC50", "setting": "CSNK1D", "value": 3.5, "unit": "nM"}]}, {"compound": "CC(C(=O)Nc1cc(-c2[nH]c3c(CC(F)(F)F)cn(C)c(=O)c3c2-c2ccc(F)cc2)ccn1)c1ccc(F)cc1", "note": "(racemic) [Example 22, 2-(4-fluorophenyl)-N-{4-[3-(4-fluorophenyl)-5-methyl-4-oxo-7-(2,2,2-trifluoroethyl)-4,5-dihydro-1H-pyrrolo[3,2-c]pyridin-2-yl]pyridin-2-yl}propanamide]", "values": [{"measurement": "IC50", "setting": "CSNK1A1", "value": 6.2, "unit": "nM"}, {"measurement": "IC50", "setting": "CSNK1D", "value": 3.2, "unit": "nM"}]}, {"compound": "CN1CC(CC2CC2)c2[nH]c(-c3ccnc(NC(=O)C(CC(F)F)c4ccc(F)cc4)c3)c(-c3ccccc3)c2C1=O", "note": "(centres unmarked) [Example 59, N-{4-[7-(cyclopropylmethyl)-5-methyl-4-oxo-3-phenyl-4,5,6,7-tetrahydro-1H-pyrrolo[3,2-c]pyridin-2-yl]pyridin-2-yl}-4,4-difluoro-2-(4-fluorophenyl)butanamide]", "values": [{"measurement": "IC50", "setting": "CSNK1A1", "value": 4.9, "unit": "nM"}, {"measurement": "IC50", "setting": "CSNK1D", "value": 3.6, "unit": "nM"}]}, {"compound": "CN1CCc2[nH]c(-c3ccnc(NC(=O)C(CC(F)F)c4ccc(F)cc4)c3)c(-c3ccccc3)c2C1=O", "note": "(racemic) [Example 2, 4,4-difluoro-2-(4-fluorophenyl)-N-[4-(5-methyl-4-oxo-3-phenyl-4,5,6,7-tetrahydro-1H-pyrrolo[3,2-c]pyridin-2-yl)pyridin-2-yl]butanamide]", "values": [{"measurement": "IC50", "setting": "CSNK1A1", "value": 1.7, "unit": "nM"}, {"measurement": "IC50", "setting": "CSNK1D", "value": 3.3, "unit": "nM"}]}, {"compound": "CC(C(=O)Nc1cc(-c2[nH]c3c(c2-c2ccccc2)C(=O)NCC3(C)C)ccn1)c1ccc(F)cc1", "note": "(racemic) [Example 46, N-[4-(7,7-dimethyl-4-oxo-3-phenyl-4,5,6,7-tetrahydro-1H-pyrrolo[3,2-c]pyridin-2-yl)pyridin-2-yl]-2-(4-fluorophenyl)propanamide]", "values": [{"measurement": "IC50", "setting": "CSNK1A1", "value": 2.7, "unit": "nM"}, {"measurement": "IC50", "setting": "CSNK1D", "value": 3.3, "unit": "nM"}]}, {"compound": "CC(C(=O)Nc1cc(-c2[nH]c3c(CC(F)(F)F)cn(C)c(=O)c3c2-c2ccc(F)cc2)ccn1)c1ccc(F)cc1", "note": "(single isomer, unassigned; (+)) [Example 24, (+)-2-(4-fluorophenyl)-N-{4-[3-(4-fluorophenyl)-5-methyl-4-oxo-7-(2,2,2-trifluoroethyl)-4,5-dihydro-1H-pyrrolo[3,2-c]pyridin-2-yl]pyridin-2-yl}propanamide]", "values": [{"measurement": "IC50", "setting": "CSNK1A1", "value": 4.5, "unit": "nM"}, {"measurement": "IC50", "setting": "CSNK1D", "value": 4, "unit": "nM"}]}, {"compound": "CC1(C)CNC(=O)c2c1[nH]c(-c1ccnc(NC(=O)C(CC(F)F)c3ccc(F)cc3)c1)c2-c1ccccc1", "note": "(racemic) [Example 43, N-[4-(7,7-dimethyl-4-oxo-3-phenyl-4,5,6,7-tetrahydro-1H-pyrrolo[3,2-c]pyridin-2-yl)pyridin-2-yl]-4,4-difluoro-2-(4-fluorophenyl)butanamide]", "values": [{"measurement": "IC50", "setting": "CSNK1A1", "value": 2.6, "unit": "nM"}, {"measurement": "IC50", "setting": "CSNK1D", "value": 2.7, "unit": "nM"}]}, {"compound": "CC(C(=O)Nc1cc(-c2[nH]c3c(CC(F)(F)F)cn(C)c(=O)c3c2-c2ccccc2)ccn1)c1ccc(F)cc1", "note": "(single isomer, unassigned; (+)) [Example 15, (+)-2-(4-fluorophenyl)-N-{4-[5-methyl-4-oxo-3-phenyl-7-(2,2,2-trifluoroethyl)-4,5-dihydro-1H-pyrrolo[3,2-c]pyridin-2-yl]pyridin-2-yl}propanamide]", "values": [{"measurement": "IC50", "setting": "CSNK1A1", "value": 2.3, "unit": "nM"}, {"measurement": "IC50", "setting": "CSNK1D", "value": 2.8, "unit": "nM"}]}]}
